Experimental data from the supplement of paper PMC10307832.

How the values were obtained:
Assay in all cases: relative viability (nuclei count vs DMSO), 5 days (fraction); higher = more cells survive
[1] = compound: Cc1ccc(C(=O)Nc2ccc(CN3CCN(C)CC3)c(C(F)(F)F)c2)cc1C#Cc1cnc2cccnn12 [Ponatinib] + COc1cccc2cc(-c3nc([C@H]4CC[C@H](C(=O)O)CC4)n4ncnc(N)c34)[nH]c12 [OSI-027] (partner 0.5 µM)
Procedure, shortened: (§1)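 One day after seeding in 1536-well plates, lung cancer cell lines were dosed by pin tool. Dosing was either single-drug or a fixed anchor-drug dose plus five library-drug doses (not always all listed) in √10 steps. After 5 days, nuclei were stained in one fix-and-stain step and counted on 4× images, and relative viability is the nuclei count of treated wells over that of vehicle wells, given as the median of duplicate plates.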

[2] = compound: Cc1ccc(C(=O)Nc2ccc(CN3CCN(C)CC3)c(C(F)(F)F)c2)cc1C#Cc1cnc2cccnn12 [Ponatinib] + CS(=O)(=O)N1CCN(Cc2cc3nc(-c4cccc5[nH]ncc45)nc(N4CCOCC4)c3s2)CC1 [Pictilisib] (partner 1 µM)
Procedure, shortened: as §1

[3] = compound: Cc1ccc(Nc2nccc(N(C)c3ccc4c(C)n(C)nc4c3)n2)cc1S(N)(=O)=O [Pazopanib] + CS(=O)(=O)CCNCc1ccc(-c2ccc3ncnc(Nc4ccc(OCc5cccc(F)c5)c(Cl)c4)c3c2)o1 [Lapatinib] (partner 2 µM)
Procedure, shortened: as §1

[4] = compound: Cc1ccc(Nc2nccc(N(C)c3ccc4c(C)n(C)nc4c3)n2)cc1S(N)(=O)=O [Pazopanib] + Cc1nc(Nc2ncc(C(=O)Nc3c(C)cccc3Cl)s2)cc(N2CCN(CCO)CC2)n1 [Dasatinib] (partner 0.075 µM)
Procedure, shortened: as §1

Row | Cell Line | relative viability ([1]; first compound 0.002 µM) | relative viability ([1]; first compound 0.006325 µM) | relative viability ([1]; first compound 0.06325 µM) | relative viability ([1]; first compound 0.2 µM) | relative viability ([2]; first compound 0.002 µM) | relative viability ([2]; first compound 0.006325 µM) | relative viability ([2]; first compound 0.06325 µM) | relative viability ([2]; first compound 0.2 µM) | relative viability ([3]; first compound 0.01 µM) | relative viability ([3]; first compound 0.03162 µM) | relative viability ([3]; first compound 0.1 µM) | relative viability ([3]; first compound 0.3162 µM) | relative viability ([3]; first compound 1 µM) | relative viability ([4]; first compound 0.01 µM) | relative viability ([4]; first compound 0.03162 µM) | relative viability ([4]; first compound 0.1 µM) | relative viability ([4]; first compound 0.3162 µM) | relative viability ([4]; first compound 1 µM)
1 | LXF-289 | 0.735 | 0.808 | 0.916 | 0.714 | 0.737 | 0.795 | 0.883 | 0.777 | 0.908 | 0.935 | 0.902 | 0.909 | 0.897 | 0.224 | 0.236 | 0.19 | 0.156 | 0.242
2 | NCI-H2009 | 0.486 | 0.496 | 0.759 | 0.545 | 0.755 | 0.838 | 0.794 | 0.625 | 0.961 | 0.946 | 0.796 | 0.883 | 0.838 | 0.279 | 0.324 | 0.298 | 0.335 | 0.226
3 | NCI-H3122 | 1 | 0.988 | 1.02 | 0.834 | 0.635 | 0.7 | 0.635 | 0.73 | 1.09 | 1.04 | 1.17 | 1.01 | 1.08 | 0.815 | 0.895 | 0.756 | 0.785 | 0.5
4 | NCI-H1755 | 0.652 | 0.694 | 0.707 | 0.595 | 0.502 | 0.535 | 0.505 | 0.391 | 0.943 | 0.993 | 1.02 | 1.02 | 1.02 | 0.333 | 0.398 | 0.433 | 0.384 | 0.411
5 | HCC-78 | 0.332 | 0.418 | 0.366 | 0.528 | 0.203 | 0.216 | 0.214 | 0.232 | 0.361 | 0.658 | 0.458 | 0.622 | 0.924 | 0.328 | 0.383 | 0.362 | 0.429 | 0.339
6 | LOU-NH91 | 0.675 | 0.762 | 0.746 | 0.741 | 0.554 | 0.567 | 0.512 | 0.521 | 0.646 | 0.744 | 0.748 | 0.759 | 0.872 | 0.49 | 0.523 | 0.559 | 0.603 | 0.565
7 | NCI-H322M | 0.595 | 0.425 | 0.508 | 0.425 | 0.523 | 0.522 | 0.53 | 0.536 | 0.587 | 0.645 | 0.653 | 0.632 | 0.618 | 0.265 | 0.258 | 0.257 | 0.275 | 0.277
8 | HCC-827 | 0.681 | 0.833 | 0.739 | 0.702 | 0.952 | 1.13 | 0.899 | 0.854 | 0.169 | 0.177 | 0.122 | 0.181 | 0.191 | 0.286 | 0.27 | 0.284 | 0.399 | 0.324
9 | SW 1573 | 0.567 | 0.483 | 0.718 | 0.522 | 0.489 | 0.515 | 0.526 | 0.566 | 0.996 | 1.1 | 1.14 | 1.27 | 1.41 | 0.588 | 0.717 | 0.621 | 0.451 | 0.561
